PubChem BioAssay (NCI)
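The compound was tested at five concentrations on cells cultured in 96-well plates, with a 48-hour exposure period. TGI: concentration producing complete growth inhibition.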

Experiments:
Assay in all cases: DTP human tumour cell line panel, 48 h
[1] = tested on: M14 melanoma
[2] = tested on: ACHN renal
[3] = tested on: DMS 273 small cell lung
[4] = tested on: OVCAR-3 ovarian
[5] = tested on: SNB-75 CNS
[6] = tested on: U251 CNS
[7] = tested on: LXFL 529 NSCLC
[8] = tested on: SK-OV-3 ovarian
[9] = tested on: DMS 114 small cell lung
[10] = tested on: HOP-62 NSCLC
[11] = tested on: UO-31 renal
[12] = tested on: COLO 205 colon
[13] = tested on: HOP-18 NSCLC
[14] = tested on: HT29 colon
[15] = tested on: HOP-92 NSCLC
[16] = tested on: MOLT-4 leukemia
[17] = tested on: NCI-H226 lung
[18] = tested on: SN12C renal
[19] = tested on: SK-MEL-5 melanoma
[20] = tested on: M19-MEL melanoma
[21] = tested on: SF-539 CNS
[22] = tested on: OVCAR-5 ovarian
[23] = tested on: SW-620 colon
[24] = tested on: HL-60(TB) leukemia
[25] = tested on: IGROV1 ovarian
[26] = tested on: UACC-62 melanoma
[27] = tested on: OVCAR-8 ovarian
[28] = tested on: SF-268 CNS
[29] = tested on: SNB-19 CNS
[30] = tested on: CCRF-CEM leukemia
[31] = tested on: TK-10 renal
[32] = tested on: 786-0 renal
[33] = tested on: SF-295 CNS
[34] = tested on: KM12 colon
[35] = tested on: LOX IMVI melanoma
[36] = tested on: A549 NSCLC
[37] = tested on: HCT-15 colon
[38] = tested on: EKVX NSCLC
[39] = tested on: RPMI-8226 leukemia
[40] = tested on: NCI-H522 lung
[41] = tested on: XF 498 CNS
[42] = tested on: SK-MEL-28 melanoma
[43] = tested on: K-562 leukemia
[44] = tested on: SR leukemia
[45] = tested on: MALME-3M melanoma
[46] = tested on: HCC-2998 colon
[47] = tested on: HCT-116 colon
[48] = tested on: SK-MEL-2 melanoma
[49] = tested on: DLD-1 colon
[50] = tested on: RXF 393 renal
[51] = tested on: NCI-H460 lung
[52] = tested on: KM20L2 colon
[53] = tested on: NCI-H23 lung
[54] = tested on: UACC-257 melanoma
[55] = tested on: CAKI-1 renal
[56] = tested on: OVCAR-4 ovarian
[57] = tested on: A498 renal

## CCOC(=O)COc1ccc(OCC(=O)OCC)c2c1C(=O)CCCC2=O
[1]
  TGI: > 100 µM
[2]
  TGI: > 100 µM
[3]
  TGI: > 100 µM
[4]
  TGI: > 100 µM
[5]
  TGI: > 100 µM
[6]
  TGI: > 100 µM
[7]
  TGI: > 100 µM
[8]
  TGI: > 100 µM
[9]
  TGI: > 100 µM
[10]
  TGI: > 100 µM
[11]
  TGI: > 100 µM
[12]
  TGI: > 100 µM
[13]
  TGI: > 100 µM
[14]
  TGI: > 100 µM
[15]
  TGI: > 100 µM
[16]
  TGI: > 100 µM
[17]
  TGI: > 100 µM
[18]
  TGI: > 100 µM
[19]
  TGI: 0.846 µM
[20]
  TGI: > 100 µM
[21]
  TGI: > 100 µM
[22]
  TGI: > 100 µM
[23]
  TGI: > 100 µM
[24]
  TGI: > 100 µM
[25]
  TGI: > 100 µM
[26]
  TGI: > 100 µM
[27]
  TGI: > 100 µM
[28]
  TGI: > 100 µM
[29]
  TGI: > 100 µM
[30]
  TGI: > 100 µM
[31]
  TGI: > 100 µM
[32]
  TGI: > 100 µM
[33]
  TGI: > 100 µM
[34]
  TGI: > 100 µM
[35]
  TGI: > 100 µM
[36]
  TGI: > 100 µM
[37]
  TGI: > 100 µM
[38]
  TGI: > 100 µM
[39]
  TGI: > 100 µM
[40]
  TGI: > 100 µM
[41]
  TGI: > 100 µM
[42]
  TGI: > 100 µM
[43]
  TGI: > 100 µM
[44]
  TGI: > 100 µM
[45]
  TGI: > 100 µM
[46]
  TGI: > 100 µM
[47]
  TGI: > 100 µM
[48]
  TGI: > 100 µM
[49]
  TGI: > 100 µM
[50]
  TGI: > 100 µM
[51]
  TGI: > 100 µM
[52]
  TGI: > 100 µM
[53]
  TGI: > 100 µM
[54]
  TGI: > 100 µM

## COc1cc(Nc2cnc3cc(N)ccc3n2)cc(OC)c1OC
[1]
  TGI: > 100 µM
[2]
  TGI: > 100 µM
[3]
  TGI: 28.1 µM
[4]
  TGI: > 100 µM
[5]
  TGI: > 100 µM
[6]
  TGI: > 100 µM
[7]
  TGI: > 100 µM
[8]
  TGI: > 100 µM
[9]
  TGI: > 100 µM
[10]
  TGI: > 100 µM
[11]
  TGI: > 100 µM
[12]
  TGI: > 100 µM
[13]
  TGI: > 100 µM
[14]
  TGI: > 100 µM
[15]
  TGI: > 100 µM
[16]
  TGI: > 100 µM
[18]
  TGI: > 100 µM
[19]
  TGI: > 100 µM
[20]
  TGI: > 100 µM
[21]
  TGI: > 100 µM
[22]
  TGI: > 100 µM
[23]
  TGI: > 100 µM
[24]
  TGI: > 100 µM
[25]
  TGI: > 100 µM
[26]
  TGI: > 100 µM
[27]
  TGI: > 100 µM
[28]
  TGI: > 100 µM
[29]
  TGI: > 100 µM
[30]
  TGI: > 100 µM
[31]
  TGI: > 100 µM
[32]
  TGI: > 100 µM
[33]
  TGI: > 100 µM
[34]
  TGI: > 100 µM
[35]
  TGI: > 100 µM
[36]
  TGI: > 100 µM
[55]
  TGI: > 100 µM
[37]
  TGI: > 100 µM
[38]
  TGI: > 100 µM
[40]
  TGI: > 100 µM
[41]
  TGI: > 100 µM
[42]
  TGI: > 100 µM
[43]
  TGI: > 100 µM
[44]
  TGI: > 100 µM
[45]
  TGI: > 100 µM
[46]
  TGI: > 100 µM
[47]
  TGI: > 100 µM
[48]
  TGI: > 100 µM
[49]
  TGI: > 100 µM
[51]
  TGI: > 100 µM
[56]
  TGI: > 100 µM
[52]
  TGI: > 100 µM
[53]
  TGI: > 100 µM
[54]
  TGI: > 100 µM
[57]
  TGI: > 100 µM
